In PubChem BioAssay AID1241 (SRMLSC, 2008):

test: NF-kB promoter reporter activators, neuronal cells, dose response, cell-based, SH-SY5Y, luciferase (AID 1241); settings: fold induction

`Cn1cccc1C(=O)OCc1csc(-c2ccccc2)n1` and `CCOc1ccc2nc(-c3ccccc3)[nH]c2c1` are within 1.5-fold of each other in EC50: 0.768 µM for the first, 1.14 µM for the second.

First: O=C(Nc1ccn(Cc2ccccc2)n1)c1cccc(F)c1
Second: O=C(Nc1ccccc1)c1ccc2ccccc2n1
The EC50 of the first is 2.6-fold higher: 15.1 µM for the first, 5.81 µM for the second. The second is the more potent here.

First: CCCCc1ccc(-c2ccc(Br)cc2)nc1
Second: Cc1ccc(-c2cn3cccc(C)c3n2)cc1
The EC50 of the first is 7.1-fold higher: 16.3 µM for the first, 2.3 µM for the second.

Going from `O=C(/C=C\Nc1ccccc1Br)c1ccc2c(c1)OCO2` to `O=C(Nc1ccc(Cl)cc1)c1ccc2c(c1)OCO2`, the EC50 rises from 0.096 µM to 2.75 µM (29-fold). The first is the more potent here.

Going from `C=CCNc1nc(-c2ccc(Cl)cc2)cs1` to `c1ccc(Nc2nc(-c3cccs3)cs2)nc1`, the EC50 falls from 11.1 µM to 0.667 µM (17-fold). The second is the more potent here.

`Clc1ccc(CSc2nc3ccncc3[nH]2)cc1` and `Cc1ccc(-c2nc3ccccc3[nH]2)s1` are within 1.5-fold of each other in EC50: 6.94 µM for the first, 6.09 µM for the second.

First: OCc1cn(-c2ccccc2)nc1-c1cc2ccccc2o1
Second: Nc1ccc(Nc2nc(-c3cc4ccccc4oc3=O)cs2)cc1
The EC50 of the first is 3.3-fold higher: 6.68 µM for the first, 2.02 µM for the second.

Compared with `COc1ccc(C(=O)/C=C/Nc2ccc(C)cn2)cc1OC`, `Cc1cccc(/C=C/c2nc3ccccc3c(=O)[nH]2)c1` is 7.8-fold lower in EC50: 6.49 µM for the first, 0.829 µM for the second. The second is the more potent here.

First: CNC(=O)Oc1cccc(-c2cn3cc(Cl)ccc3n2)c1
Second: COc1cccc(-c2cc(C(=O)Nc3cccc(O)c3)no2)c1
The EC50 of the first is 2.5-fold higher: 1.26 µM for the first, 0.498 µM for the second. The second is the more potent here.

Compared with `CCN(CC)C(=O)c1sc2nc(-c3ccccc3)ccc2c1N`, `CCN(CC)c1ccc(NC(=O)c2ccccc2F)cc1` is 2.4-fold higher in EC50: 3.09 µM for the first, 7.39 µM for the second.

Compared with `O=C(NC1CCCCCCC1)c1ccc2c(c1)OCO2`, `O=C(Nc1nc2c(s1)CCCC2)c1ccc(Br)s1` is 10-fold lower in EC50: 11 µM for the first, 1.07 µM for the second. The second is the more potent here.

Going from `COc1ccc2nc(NC(=S)N(C)C)sc2c1` to `CN(C)C(=S)Nc1nc2ccccc2s1`, the EC50 falls from 24.8 µM to 15.1 µM (1.6-fold). The second is the more potent here.

`CCCC(=O)Nc1ccc(C(=O)N/N=C/c2ccc[nH]2)cc1` and `Oc1ccccc1/C=N/Nc1cccc2cccnc12` are within 1.5-fold of each other in EC50: 2.99 µM for the first, 3.58 µM for the second.

Compared with `Cn1ccc(C(=O)Nc2ccc(Br)cc2Br)n1`, `Cc1cc(C)cc(NC(=O)c2ccc([N+](=O)[O-])o2)c1` is 7-fold lower in EC50: 29.5 µM for the first, 4.24 µM for the second.

Going from `Clc1cccc(Cl)c1/C=C/c1nc2ccccc2[nH]1` to `CC(=Nc1cccc(O)c1)c1sc2ccccc2c1O`, the EC50 rises from 1.19 µM to 2.2 µM (1.8-fold).

For `Cc1nc(N)sc1N=Nc1ccc(Br)cc1`, the EC50 was 7 µM.
